Source: ChEMBL document CHEMBL1123483, “Inhibition of chicken liver dihydrofolate reductase by 5-(substituted benzyl)-2,4-diaminopyrimidines. A quantitative structure-activity relationship and graphics analysis” (J Med Chem, 1986)

Assay: Partition coefficient (logD) (aqueous phase 0.1 N HCl)
Format: physicochemical
[1] = 0.1 N HCl (aqueous phase), read-out: logD

Row | SMILES | logD [1] | logD (octanol/water)
1 | Nc1ncc(Cc2ccc3c(c2)OCO3)c(N)n1 | 1.52 | 
2 | Nc1ccc(Cc2cnc(N)nc2N)cc1 | 0.26 | 
3 | COCCOc1cccc(Cc2cnc(N)nc2N)c1 | -1.33 | 
4 | CCOc1cc(Cc2cnc(N)nc2N)cc(OCC)c1 | 2.52 | 
5 | COCCOc1c(OC)cc(Cc2cnc(N)nc2N)cc1OC [TETROXOPRIM] | -1.81 | 
6 | COCCOc1ccc(Cc2cnc(N)nc2N)cc1OCCOC |  | -1.89
7 | C=C(C)c1c(OC)cc(Cc2cnc(N)nc2N)cc1OC | 3.07 | 
8 | COc1ccc(Cc2cnc(N)nc2N)cc1 | 1.34 | 
9 | COc1cc(Cc2cnc(N)nc2N)cc(OC)c1N(C)C [ADITOPRIM] | 1.51 | 
10 | CCc1cc(Cc2cnc(N)nc2N)cc(CC)c1CC | 1.55 | 
11 | COc1ccc(Cc2cnc(N)nc2N)cc1OC [DIAVERIDINE] | 1 | 
12 | CCCCCCCCOc1cc(Cc2cnc(N)nc2N)ccc1OC | 2.55 | 
13 | COc1cc(Cc2cnc(N)nc2N)cc(OC)c1Br [BRODIMOPRIM] | 2.04 | 
14 | COc1cc(Cc2cnc(N)nc2N)cc(OC)c1 | 1.6 | 
15 | COc1cc(Cc2cnc(N)nc2N)cc(OC)c1SC [METIOPRIM] | 1.6 | 
